Test results from patent US9717796B1, “Heat sterilizeable, premixed, ready to use dexmedetomidine solution packaged in a flexible plastic container” (SLYPHARMA, LLC, priority 2016, dated 2017).
Like-named read-outs stand apart in the source and are kept apart here.

How the values were obtained:
[1] = Description: A composition was prepared containing 4.0 μg Dexmedetomidine and 50 mg dextrose to adjust tonicity with sufficient water to bring the total volume to 1 mL.
Remark: listed apart in the source
[2] = cited from earlier work
[3] = DEHP used as plasticizer in PVC bags; cited from earlier work

For Cc1cccc([C@H](C)c2cnc[nH]2)c1C [dexmedetomidine, (S)-4-[1-(2,3-dimethylphenyl)ethyl]-3H-imidazole], which “time the solution will be stable at room temperature” value ([1]; Example 1 solution (dextrose) in Nexcel bag, extrapolated from the accelerated test) is on record?
Its value is “about 24 months”.

And the “adsorption or absorption by the ethylene-vinyl acetate copolymer inner-most bag layer” value ([1]; Example 1 solution, Nexcel bag, storage tests)?
Its value is “not adsorbed or absorbed”.

And the “dexmedetomidine retained after autoclaving in moist steam” value (5.5 mg/mL sodium chloride and 28 gram/mL sodium acetate and 320 mg/mL glacial acetic acid as buffer)?
Its value is 90.1%.

What about the “retention of the dexmedetomidine after autoclaving in moist steam” value (buffer (28 g/mL sodium acetate and 320 mg/mL glacial acetic acid) with dextrose as tonicity adjusting agent, Nexcel bag) of the same compound?
Its value is 99.4%.

What about the “retention of the dexmedetomidine after autoclaving in moist steam” value (buffer (28 g/mL sodium acetate and 320 mg/mL glacial acetic acid) with sucrose as tonicity adjusting agent, Nexcel bag) of the same compound?
Its value is 99.0%.

And the “dexmedetomidine retained after autoclaving in moist steam” value (solution comprising 9 mg/mL sodium chloride, Nexcel bag)?
Its value is 93%.

What about the potency loss ([2]; CR3 elastomer copolyester ether bags and PVC bags, autoclaving) of the same compound?
Its potency loss is 20%.

And the “drug recovered in MeOH rinse of emptied bags” value ([2]; CR3 elastomer copolyester ether bags)?
Its value is “Nearly all”.

And the “drug recovered in MeOH rinse of emptied bags” value ([2]; PVC bags)?
The value was 1%.

What about the “total percent of impurities” value ([2]; autoclaved premixed composition in PVC and CR3 bags) of the same compound?
Its value is “less than 20%”.

And the drug loss ([2]; formulation with a buffer system, plastic bags)?
The drug loss was roughly 10%.

What about the “dexmedetomidine lost through adsorption” value ([2]; premixed solution in plastic materials) of the same compound?
Its value is “up to 20%”.

What about the “solubility in DEHP” value [3] of the same compound?
The value was “soluble”.
